Values after ≈ are worked out from the molar mass of the structure shown.

What all share (type): functional, organism-based
Assay [1] deals with Pyrenophora tritici-repentis. The experiment in a line: Antifungal activity against Pyrenophora tritici-repentis isolate Ptr 92 145-2-4 assessed as inhibition of conidia germination after 6 hr incubation. To be noted: Ptr 92 145-2-4, 6 h.
The test system of assay [2] is Pyrenophora tritici-repentis. The experiment in a line: Antifungal activity against Pyrenophora tritici-repentis isolate Ptr 92 148-1-1 assessed as inhibition of conidia germination after 6 hr incubation in presence of SHAM. The conditions noted are these: Ptr 92 148-1-1, 6 h.
For assay [3], the system named is Pyrenophora tritici-repentis. The experiment in a line: Antifungal activity against Pyrenophora tritici-repentis isolate Ptr 86-4 assessed as inhibition of conidia germination after 6 hr incubation. To be noted: Ptr 86-4, 6 h.
For assay [4], the system named is Pyrenophora tritici-repentis. The experiment in a line: Antifungal activity against Pyrenophora tritici-repentis isolate Ptr 90 P7d assessed as inhibition of conidia germination after 6 hr incubation in presence of SHAM.
For assay [5], the system named is Pyrenophora tritici-repentis. The experiment in a line: Antifungal activity against Pyrenophora tritici-repentis isolate Ptr 90 DL-22 assessed as inhibition of conidia germination after 6 hr incubation in presence of SHAM. To be noted: Ptr 90 DL-22, 6 h.
In assay [6] the test system is Pyrenophora tritici-repentis. The experiment in a line: Antifungal activity against Pyrenophora tritici-repentis isolate Ptr 92 120-2-2 assessed as inhibition of conidia germination after 6 hr incubation. To be noted: Ptr 92 120-2-2, 6 h.
The subject of assay [7] is Pyrenophora tritici-repentis. The experiment in a line: Antifungal activity against Pyrenophora tritici-repentis isolate Ptr 86-4 assessed as inhibition of conidia germination after 6 hr incubation in presence of SHAM. To be noted: Ptr 86-4, 6 h.
Assay [8] has as its system Pyrenophora tritici-repentis. The experiment in a line: Antifungal activity against Pyrenophora tritici-repentis isolate Ptr 1A assessed as inhibition of conidia germination after 6 hr incubation.
The test system of assay [9] is Pyrenophora tritici-repentis. The experiment in a line: Antifungal activity against Pyrenophora tritici-repentis isolate Ptr 4b assessed as inhibition of conidia germination after 6 hr incubation in presence of SHAM.
Assay [10] concerns Pyrenophora tritici-repentis. The experiment in a line: Antifungal activity against Pyrenophora tritici-repentis isolate Ptr 92 119-2-3 assessed as inhibition of conidia germination after 6 hr incubation. The conditions noted are these: Ptr 92 119-2-3, 6 h.
Assay [11] deals with Pyrenophora tritici-repentis. The experiment in a line: Antifungal activity against Pyrenophora tritici-repentis isolate Ptr 92 119-2-3 assessed as inhibition of conidia germination after 6 hr incubation in presence of SHAM. The conditions noted are these: Ptr 92 119-2-3, 6 h.
Assay [12] concerns Pyrenophora tritici-repentis. The experiment in a line: Antifungal activity against Pyrenophora tritici-repentis isolate Ptr 92 115-2-3 assessed as inhibition of conidia germination after 6 hr incubation. The conditions noted are these: Ptr 92 115-2-3, 6 h.
Assay [13] deals with Pyrenophora tritici-repentis. The experiment in a line: Antifungal activity against Pyrenophora tritici-repentis isolate Ptr 92 148-1-1 assessed as inhibition of conidia germination after 6 hr incubation. To be noted: Ptr 92 148-1-1, 6 h.
In assay [14] the test system is Pyrenophora tritici-repentis. The experiment in a line: Antifungal activity against Pyrenophora tritici-repentis isolate Ptr 92 145-2-4 assessed as inhibition of conidia germination after 6 hr incubation in presence of SHAM. To be noted: Ptr 92 145-2-4, 6 h.
Assay [15] relates to Pyrenophora tritici-repentis. The experiment in a line: Antifungal activity against Pyrenophora tritici-repentis isolate Ptr 1A assessed as inhibition of conidia germination after 6 hr incubation in presence of SHAM.
Assay [16] has as its system Pyrenophora tritici-repentis. The experiment in a line: Antifungal activity against Pyrenophora tritici-repentis isolate Ptr 92 120-2-2 assessed as inhibition of conidia germination after 6 hr incubation in presence of SHAM. The conditions noted are these: Ptr 92 120-2-2, 6 h.
In assay [17] the test system is Pyrenophora tritici-repentis. The experiment in a line: Antifungal activity against Pyrenophora tritici-repentis isolate Ptr 92 115-2-3 assessed as inhibition of conidia germination after 6 hr incubation in presence of SHAM. The conditions noted are these: Ptr 92 115-2-3, 6 h.
Assay [18] has as its system Pyrenophora tritici-repentis. The experiment in a line: Antifungal activity against Pyrenophora tritici-repentis isolate Ptr 4b assessed as inhibition of conidia germination after 6 hr incubation.
In assay [19] the test system is Pyrenophora tritici-repentis. The experiment in a line: Antifungal activity against Pyrenophora tritici-repentis isolate Ptr 90 P7d assessed as inhibition of conidia germination after 6 hr incubation.
Assay [20] relates to Pyrenophora tritici-repentis. The experiment in a line: Antifungal activity against Pyrenophora tritici-repentis isolate Ptr 90 DL-22 assessed as inhibition of conidia germination after 6 hr incubation. To be noted: Ptr 90 DL-22, 6 h.

As for `COC(=O)N(OC)c1ccccc1COc1ccn(-c2ccc(Cl)cc2)n1` [PYRACLOSTROBIN], the EC50 (usually the concentration at which the effect is half-maximal) in assay [1] was found to be 3.8 ng/mL (≈ 0.0098 µM); in [2], 2.3 ng/mL; in [3] it was 3.4 ng/mL (≈ 0.00877 µM); in assay [4], 1.6 ng/mL; in assay [5], 1.6 ng/mL; in assay [6] it was 8.1 ng/mL (≈ 0.0209 µM). Moreover, the 50% effective concentration (EC50) in assay [7] worked out at 1.6 ng/mL; in assay [8], 9.9 ng/mL (≈ 0.0255 µM); in assay [9], 1.6 ng/mL; in assay [10], 3.8 ng/mL (≈ 0.0098 µM); in assay [11], 2 ng/mL; in [12] it was 12.4 ng/mL (≈ 0.032 µM). The EC50 in assay [13] is 5.1 ng/mL (≈ 0.0132 µM); in assay [14] it was 1.5 ng/mL; in assay [15], 2.2 ng/mL; in assay [16] it was 2.1 ng/mL; in assay [17], 2.3 ng/mL; in assay [18], 3.8 ng/mL (≈ 0.0098 µM). For the same compound, the EC50 in assay [19] was found to be 3.3 ng/mL (≈ 0.00851 µM); in assay [20], 11.8 ng/mL (≈ 0.0304 µM).

The values above are taken from ChEMBL document CHEMBL3046458, “Pyraclostrobin sensitivity of baseline and fungicide exposed isolates of Pyrenophora tritici-repentis” (Crop Prot, 2012).
